Values joined by “and” are separate entries in the source; they are usually repeats but may differ in a detail not shown here. Identical values can stand only once.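 Briefly, cells in 96-well plates were exposed to five compound concentrations for 48 h, and endpoints were estimated by linear interpolation. Here, GI50 denotes the concentration required for 50% inhibition of growth. The concentration for full growth arrest is given as TGI.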
Key:
Test in all cases: growth of human tumour cells (NCI), 48 h
[1] = system: SK-MEL-2 melanoma
[2] = system: CAKI-1 renal
[3] = system: SNB-75 CNS
[4] = system: UACC-62 melanoma
[5] = system: A498 renal
[6] = system: CCRF-CEM leukemia
[7] = system: DMS 273 small cell lung
[8] = system: MDA-MB-435
[9] = system: PC-3 prostate
[10] = system: SNB-78 CNS

Compound	TGI [1] [µM]	TGI [2]	TGI [3]	TGI [4]	TGI [5]	TGI [6]	TGI [7] [µM]	GI50 [8] [µM]	TGI [8] [µM]	GI50 [1] [µM]	GI50 [9] [µM]	TGI [9]	GI50 [2]	GI50 [3]	GI50 [4]	GI50 [5]	GI50 [6]	GI50 [7] [µM]	TGI [10] [µM]
CCCCCC1C2C(=O)NC(=O)C1C(=O)NC2=O (stereo not given)	> 100	> 100 µM	> 100 µM	> 100 µM	> 100 µM	> 100 µM	> 100												
C[CH2][Ge]1([CH2]C)[CH2]CC2(CCN(CCCN(C)C)C2)C[CH2]1	1.32	3.31 µM and 8.49 µM	1.84 µM and 3.24 µM	1.78 µM and 3.19 µM	3.26 µM and 1.68 µM	2.33 µM and 2.44 µM	4.57	0.289	0.843	0.616	1.8	4.44 µM and 1.34 µM	1.61 µM and 3.04 µM	0.175 µM and 1.48 µM	0.875 µM and 1.57 µM	1.64 µM and 1.05 µM	0.709 µM and 1.4 µM	2.4	
COc1ccc2nccc(C3OC(=O)N4CCC(=O)CC34)c2c1 (stereo not given)	> 100	> 100 µM		> 100 µM	> 100 µM	> 100 µM													> 100
O=[N+]([O-])c1ccc(-c2ccc(C3=Nn4c(nnc4-c4ccc(Cl)cc4)SC3)o2)cc1	> 100	> 100 µM	> 65.3 µM	> 100 µM	> 100 µM	> 100 µM	> 100												
Cc1nn(-c2ccccc2)c2ncc3c(c12)C(=O)N(Cc1ccccc1)C3=O	31.5	5.97 µM	6.64 µM	> 100 µM	21.8 µM	16.8 µM		> 100	> 100	13.7	10.1	> 100 µM	2.43 µM	2.23 µM	21.5 µM	3.51 µM	1.99 µM		
CN(C)c1ccc(/C=C/C(=O)c2ccc(Nc3nc(Nc4ccc(F)cc4)nc(Nc4ccc(Cl)cc4)n3)cc2)cc1	18.6	> 100 µM	38.9 µM	37.9 µM	18.1 µM	9.44 µM		3.03	17.3	4.6	2.08	5.45 µM	14.6 µM	9 µM	14 µM	2.97 µM	2.57 µM		
Cc1ccc(SCN2CCCCC2)cc1 (tested in a mixture with another compound)	31.1	26.3 µM	22.5 µM	27.7 µM	14.7 µM	6.59 µM			25.6			30.2 µM							
NC(=O)NOCC1NC(=O)NC1=O (stereo not given)	> 100	> 100 µM	> 100 µM	> 100 µM	> 100 µM	> 100 µM			> 100			> 100 µM							
O=C(/C=C\c1ccc(Cl)c(Cl)c1)c1ccccc1	27.4	19.3 µM	23.8 µM	21.6 µM	25.2 µM	8.78 µM		4.48	16.7	13.8	5.93	20.7 µM	6.33 µM	11.6 µM	9.33 µM	12.4 µM	2.68 µM		
CCOC(=O)C(Cc1ccc(N(CCCl)CCCl)cc1)NC(=O)C(CC(C)C)NC(C)=O (stereo not given)	5.13	2.32 µM	8.4 µM	2.19 µM	10.6 µM	3.31 µM		1.43	3.25	2.61	1.3	5.4 µM	0.32 µM	1.94 µM	0.659 µM	2.29 µM	0.232 µM		
COc1ccc(-c2nccn2-c2cc(OC)c(OC)c(OC)c2)cc1	> 100	> 77.1 µM	> 76.3 µM	24.1 µM		> 100 µM		0.222	3.25	36.1	1.81	> 100 µM	1.22 µM	1.51 µM	0.675 µM	0.909 µM	8.13 µM		
O=C(CN1C(=O)c2ccccc2C1=O)NC1(C(=O)O)CCCC1	> 100	> 100 µM	> 100 µM	> 100 µM	> 100 µM	> 100 µM			> 100			> 100 µM							
C[As](C)SCC(COC(=O)c1ccccc1)OC(=O)c1ccccc1 (stereo not given)	2.8	0.0499 µM	12.7 µM	1.37 µM	1.15 µM	0.759 µM		0.0191	0.0664	0.4	0.358	15.7 µM	< 0.0181 µM	0.968 µM	0.156 µM	0.135 µM	0.0305 µM		
CCCC1C2=C(C(=O)OC2=O)C2C(CC)CC3=C(C(=O)OC3=O)C12 (stereo not given)	> 100	> 100 µM	> 100 µM	> 100 µM	> 100 µM	> 100 µM			> 100			> 100 µM							
COC(=O)c1cc2c([nH]c3ccccc32)c(-c2nc3cc(N(S(=O)(=O)c4ccc(C)cc4)S(=O)(=O)c4ccc(C)cc4)c(OC)cc3cc2CO)n1	> 100	> 100 µM	98.7 µM	> 100 µM	> 100 µM	32 µM		> 100	> 100	> 100	> 100	> 100 µM	> 100 µM	33.5 µM	> 100 µM	> 100 µM	10.3 µM		
CCCCc1ccc(C(N)=O)nc1	> 100	> 100 µM	> 100 µM	> 100 µM	> 100 µM	> 100 µM		> 100	> 100	> 100	> 100	> 100 µM	> 100 µM	> 100 µM	> 100 µM	48.1 µM	> 100 µM		
O=C1/C(=C/c2ccc([N+](=O)[O-])s2)Oc2ccc(Cl)cc21	0.624	6.68 µM	1.74 µM	0.771 µM	4.91 µM	0.72 µM		0.457	1.55	0.26	0.216	0.593 µM	2.05 µM	0.486 µM	0.271 µM	1.74 µM	0.273 µM		
CC(=O)OC12CCCCC1C1(CCCC1)NC2=O (stereo not given)			> 100 µM	> 100 µM	> 100 µM	> 100 µM													> 100

Compound	TGI [1] [µM]	TGI [2]	TGI [3]	TGI [4]	TGI [5]	TGI [6]	TGI [7] [µM]	GI50 [8] [µM]	TGI [8] [µM]	GI50 [1] [µM]	GI50 [9] [µM]	TGI [9]	GI50 [2]	GI50 [3]	GI50 [4]	GI50 [5]	GI50 [6]	GI50 [7] [µM]	TGI [10] [µM]
Cn1c(N)cc(=O)nc1N	> 100	> 100 µM	> 100 µM	> 100 µM	> 100 µM	> 100 µM			> 100			> 100 µM							
CCN(CC)CCC(CNc1c2ccc(Cl)cc2nc2ccc(OC)cc12)c1ccccc1 (stereo not given)	3.31	3.62 µM	2.83 µM	3.06 µM	2.75 µM	5.17 µM		1.5	3.09	1.76	1.96	6.16 µM	1.3 µM	1.49 µM	1.58 µM	1.4 µM	1.1 µM		
Cn1cnc2nc(Cl)nc(Cl)c21	10.2	3.26 µM	13.4 µM	19.7 µM	6.77 µM	22.1 µM		0.445	13.7	2.7	0.594	12.8 µM	1.08 µM	2.48 µM	1.79 µM	2.2 µM	0.84 µM		
CN1CCN(Cc2ccc(NC(=O)c3cncc(C#Cc4c(N)ncc5ccc(F)cc45)c3)cc2C(F)(F)F)CC1	2.55	5.68 µM	2.66 µM	1.81 µM	1.26 µM	3.73 µM		0.18	0.876	0.479	1.23	3.78 µM	1.06 µM	0.721 µM	0.64 µM	0.299 µM	0.553 µM		
CC1SC(c2cccc(Oc3ccccc3)c2)N(CCc2cccs2)C1=O (stereo not given)	2.31	3.37 µM	3.71 µM	2.22 µM	2.46 µM	> 24 µM		1.19	3.14	1.03	0.595	3.37 µM	0.519 µM	1.3 µM	0.676 µM	1.21 µM	0.747 µM		
Cc1nc2cc(NC(=O)CN3CCN(CCN4C(=O)c5cccc6cccc(c56)C4=O)CC3)ccc2s1	24.1	> 100 µM	21.4 µM	17.6 µM	38.3 µM	95.9 µM		4.6	19.4	6.62	4.5	> 100 µM	4.32 µM	3.51 µM	4.98 µM	5.63 µM	2.94 µM		
Nc1nc(N)c2nn(-c3ccc(C(=O)O)cc3)nc2n1	> 100	> 100 µM	> 100 µM	> 100 µM	> 100 µM	> 100 µM			> 100			> 100 µM							
CC(=O)OC1C(OC/C2=C/C3[C@@H](C(C)C)CC=C(C)[C@@H]3CC(OC(=O)/C=C/c3cn(C)cn3)[C@]3(C)C=C[C@@]2(O)O3)OCC(O)C1O (stereo not given in full)		> 13.2 µM	0.0319 µM	> 50 µM	0.106 µM	> 50 µM		0.00626	0.0208	0.0199	0.0271	> 50 µM	0.196 µM	0.00575 µM	0.0242 µM	0.0122 µM	0.0399 µM		
COc1cc(C2C(C(=O)Nc3ccc(Cl)c(Cl)c3)=C(C)NC(C)=C2C(=O)Nc2ccc(Cl)c(Cl)c2)ccc1O	23.5	34.1 µM	34.5 µM		28.5 µM	13.5 µM													53.5
COc1cc2c(cc1Nc1nc(Nc3ccsc3C(N)=O)c3cc[nH]c3n1)N(C(=O)CN(C)C)CCC2	4.58	10.2 µM	3.92 µM	4.2 µM	4.13 µM	9.66 µM		0.0499	0.489	0.726	1.17	> 23.6 µM	3.64 µM	1.49 µM	0.889 µM	0.5 µM	0.162 µM		
COc1ccc(C2CC(c3cccc(Nc4ccnc5cc(Cl)ccc45)c3)=NN2c2ccc(Cl)cc2)cc1 (stereo not given)	38.9	> 100 µM	97.9 µM	13.3 µM	53.9 µM	43.4 µM		0.717	49.6	11.5	1.18	64.5 µM	2.38 µM	12.5 µM	0.601 µM	4.64 µM	1.84 µM		
N#Cc1ccccc1C#C/C=C\C#Cc1cnccn1	> 100	> 23.4 µM	> 100 µM	> 89.9 µM	52.3 µM	> 100 µM		3.14		8.34	30.9	> 100 µM	6.95 µM	> 73.9 µM	14.5 µM	16.2 µM	3.09 µM		
COc1cc(C2C3=C(COC3=O)N(CCO)c3cc4c(cc32)CCC4)cc(OC)c1OC (stereo not given)	> 9.09	> 32.5 µM	> 32.5 µM	> 32.5 µM	1.76 µM	> 32.5 µM		0.0279	0.187	0.146	0.112	> 32.5 µM	0.484 µM	0.123 µM	0.0749 µM	0.0722 µM	0.13 µM		
COc1ccc(/C=C2\CC(C)CC3C2=NN(C(C)=O)C3c2ccc(OC)c(OC)c2)cc1OC (stereo not given)	30	> 100 µM	54.3 µM	33.3 µM	31 µM	68.8 µM		18.6	39.4	15.4	13.8	> 100 µM	53.3 µM	24.8 µM	16.2 µM	15.9 µM	20.8 µM		
COc1ccc(/C=C(\NC(=O)c2ccccc2)c2nc3ccccc3[nH]2)cc1	48.4	> 100 µM	99.4 µM	> 100 µM	> 100 µM	> 100 µM	> 100												
C/C=C\C(C)=C/C(C)C(=O)CC(O)CC1CC(=O)NC(=O)C1 (stereo not given)	> 100	> 67.5 µM	68.2 µM	> 64.1 µM	> 100 µM	> 100 µM			> 100			> 100 µM							
C#Cc1cccc(NC(=O)Nc2cccc(NC(=O)CCl)c2)c1	> 82.5	> 82.5 µM	> 82.5 µM	> 82.5 µM	> 82.5 µM	68.6 µM		24.2	> 82.5	32.7	37.8	> 82.5 µM	> 82.5 µM	8.67 µM	33.1 µM	1.22 µM	10.9 µM		

— PubChem BioAssay (NCI)
